Source: article PMC7329864, “Role of water in cyclooxygenase catalysis and design of anti-inflammatory agents targeting two sites of the enzyme” (Scientific Reports, 2020)
Read-outs that look alike come from different tables or passages of the source.

How the values were obtained:
[1] = In-vivo pharmacokinetic studies
Description: Acute toxicity studies of 1 were carried out at 3 dose levels of 50 mg Kg^−1, 300 mg Kg^−1 and 2000 mg Kg^−1 by periodic monitoring for the first 24 h and daily monitoring for 14 days[56]. […] A few jumping movements were also observed. However, all these behaviours subsided after 60 min. […] Therefore, complying with the design and the results of in vitro studies, the in vivo experiments were gestured with the emergence of a new category of anti-inflammatory agents.
In-vivo Pharmacokinetic studies were performed as per the previously reported protocol.

[2] = molecular target: T1, COX-2 (Homo sapiens, UniProt P35354); test: UV-Vis and fluorescence studies of interaction with COX-2; type: binding
T1 sequence (P35354 18-604): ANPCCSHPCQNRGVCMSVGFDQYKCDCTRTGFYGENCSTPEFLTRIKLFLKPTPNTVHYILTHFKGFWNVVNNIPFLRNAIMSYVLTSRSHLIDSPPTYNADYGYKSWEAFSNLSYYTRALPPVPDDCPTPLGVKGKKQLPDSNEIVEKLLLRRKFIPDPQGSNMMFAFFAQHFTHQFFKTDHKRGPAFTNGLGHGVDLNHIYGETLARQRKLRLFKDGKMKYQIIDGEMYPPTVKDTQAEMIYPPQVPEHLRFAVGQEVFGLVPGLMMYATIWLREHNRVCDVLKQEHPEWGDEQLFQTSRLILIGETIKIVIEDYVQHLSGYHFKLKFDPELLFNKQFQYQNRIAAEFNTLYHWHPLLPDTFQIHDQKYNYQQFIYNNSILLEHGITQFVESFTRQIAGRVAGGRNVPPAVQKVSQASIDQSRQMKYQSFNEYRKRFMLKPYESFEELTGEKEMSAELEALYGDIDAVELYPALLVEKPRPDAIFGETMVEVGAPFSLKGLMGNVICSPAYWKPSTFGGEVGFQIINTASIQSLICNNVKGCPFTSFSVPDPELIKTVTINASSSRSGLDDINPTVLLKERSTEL
Source text: In order to support in-silico experiments, the interactions of 1, 13d and 15d with COX-2 were checked with UV–vis and fluorescence spectral techniques. […] The appearance of level-off in the visible region (500–700 nm) was attributed to the Mie scattering due to the formation of aggregates. […] Corroborating the results of molecular modelling studies, the changes in the UV–Vis spectra as well as the fluorescence spectrum of the compound on addition of COX-2 probably occurred due to the HOMO–LUMO interactions between 1 and the enzyme (Figure S26). The linear Stern–Volmer plot of decrease in fluorescence intensity at 567 nm on increasing COX-2 concentration gave Stern–Volmer constant Ksv 3.30 × 10^4 M^-1. The detection limit of the compound for COX-2 was 0.02 nM (Figure S26C,D).
In order to support in-silico experiments, the interactions of 1, 13d and 15d with COX-2 were checked with UV-vis and fluorescence spectral techniques. […] The appearance of level-off in the visible region (500-700 nm) was attributed to the Mie scattering due to the formation of aggregates. […] Corroborating the results of molecular modelling studies, the changes in the UV-Vis spectra as well as the fluorescence spectrum of the compound on addition of COX-2 probably occurred due to the HOMO-LUMO interactions between 1 and the enzyme (Figure S27). The linear Stern-Volmer plot of decrease in fluorescence intensity at 567 nm on increasing COX-2 concentration gave Stern-Volmer constant Ksv 3.30x10^4 M^-1. The detection limit of the compound for COX-2 was 0.02 nM (Figure 27C, 27D).

O=C1NC(=O)C(=Cc2cn(CCCCCCn3c4ccccc4c(=O)c4ccccc43)c3ccccc23)C(=O)N1 [Compound 1]
Cmax ([1]; Animal 1): 3150 nM | Tmax ([1]; Animal 1): 0.5 h | AUC(0-t) ([1]; Animal 1, read-out: AUC(0–1440 min) (converted)): 21.4 µM·h | half-life ([1]; Animal 1, read-out: T1/2): 11.2 h | Cmax ([1]; Animal 2): 2860 nM | Tmax ([1]; Animal 2): 0.25 h | AUC(0-t) ([1]; Animal 2, read-out: AUC(0–1440 min) (converted)): 19.7 µM·h | half-life ([1]; Animal 2, read-out: T1/2): 6.96 h | Cmax ([1]; Animal 3): 2600 nM | Tmax ([1]; Animal 3): 0.5 h | AUC(0-t) ([1]; Animal 3, read-out: AUC(0–1440 min) (converted)): 20.2 µM·h | half-life ([1]; Animal 3, read-out: T1/2): 8.68 h | Tmax ([1]; Mean): 0.417 h | AUC(0-t) ([1]; Mean, read-out: AUC(0–1440 min) (converted)): 20.4 µM·h | half-life ([1]; Mean, read-out: T1/2): 8.95 h | half-life ([1]; read-out: half life (T1/2) (converted)): ~9 h | decrease in fluorescence intensity (quenching) in the presence of COX-2 ([2]; addition of COX-2 in Tris–HCl buffer pH 7.25 to solution of compound): significant quenching | detection limit of the compound for COX-2 ([2]; fluorescence intensity at 567 nm vs [COX-2], Tris–HCl buffer pH 7.25): 0.02 nM | Stern–Volmer constant Ksv ([2]; fluorescence quenching at 567 nm by COX-2, 0.5 µM compound, Tris–HCl buffer pH 7.25): 33000 M⁻¹
